Assay results: patent publication US20160333419A1, “GENE SIGNATURES ASSOCIATED WITH SENSITIVITY TO MDM2 INHIBITORS” (DAIICHI SANKYO COMPANY, LIMITED, priority 2014, published 2016)

Experiments:
[1] = system: multi-cancer cell line panel; assay: OncoPanel cytotoxicity assay, whole panel summary; format: cell-based, human
Protocol: This Example describes an evaluation of the effect of a representative small molecule MDM2i on the growth of cells in a multi-cancer cell line panel. In this Example, the MDM2 inhibitors used were Compound A and Compound B p-toluenensulfonate. The panel included 250 human cancer cell lines (OncoPanel™, Ricerca Biosciences, Painesville, Ohio) that were evaluated in a high content drug screening analysis. The relative IC50 values for the cell lines were determined.
Cells were grown in RPMI 1640, 10% FBS, 2 mM L-alanyl-L-Glutamine, 1 mM Na Pyruvate, or a special medium in a humidified atmosphere of 5% CO2 at 37° C. Cells were seeded into 384-well plates and incubated in a humidified atmosphere of 5% CO2 at 37° C. Test compounds were added 24 hours post cell seeding. At the same time, a time zero, untreated cell plate was generated as a control. After a 72 hour incubation period, cells were fixed and stained with nuclear dye to allow visualization of nuclei.
Compounds were serially diluted 3.16-fold and assayed over 10 concentrations of inhibitor in a final assay concentration of 0.1% DMSO from the highest test concentration specified in the sample information chapter. Automated fluorescence microscopy was carried out using a GE Healthcare InCell Analyzer 1000, and images were collected with a 4× objective. Twelve bit tiff images were acquired using the InCell Analyzer 1000 3.2 and analyzed with Developer Toolbox 1.6 software.
Cell proliferation was measured by the signal intensity of the incorporated nuclear dye. The cell proliferation assay output is referred to as the relative cell count. To determine the cell proliferation end point, the cell proliferation data output is transformed to percent of control (POC) using the following formula: […]
Relative cell count IC50 (IC50) is the test compound's concentration that produces 50% of the cell proliferation inhibitory response or 50% cytotoxicity level. IC50 values were calculated using nonlinear regression to fit data to a sigmoidal 4 point, 4 parameter One-Site dose response model, where: y (fit)=A+[(B−A)/(1+((C/x)̂D))]. […]

CAL-54 = assay: OncoPanel cytotoxicity assay; format: cell-based; details: Homo sapiens, 72 hour incubation
Outline: (§1)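 Cells grown in RPMI 1640 with 10% FBS (or a special medium) at 37° C, 5% CO2 were treated 24 hours after seeding for 72 hours with 10 concentrations (3.16-fold dilutions, 0.1% DMSO final). Nuclei were dye-stained and imaged; IC50 was fit from percent of control relative cell count.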

WM-115 = assay: OncoPanel cytotoxicity assay; format: cell-based; details: Homo sapiens, 72 hour incubation
Outline: as §1

IMR-32 = assay: OncoPanel cytotoxicity assay; format: cell-based; details: Homo sapiens, 72 hour incubation
Outline: as §1

ZR-75-1 = assay: OncoPanel cytotoxicity assay; format: cell-based; details: Homo sapiens, 72 hour incubation
Outline: as §1

CRO-AP5 = assay: OncoPanel cytotoxicity assay; format: cell-based; details: Homo sapiens, 72 hour incubation
Outline: as §1

T84 = assay: OncoPanel cytotoxicity assay; format: cell-based; details: Homo sapiens, 72 hour incubation
Outline: as §1

VCaP = assay: OncoPanel cytotoxicity assay; format: cell-based; details: Homo sapiens, 72 hour incubation
Outline: as §1

BT-483 = assay: OncoPanel cytotoxicity assay; format: cell-based; details: Homo sapiens, 72 hour incubation
Outline: as §1

MDA-MB-175-VII = assay: OncoPanel cytotoxicity assay; format: cell-based; details: Homo sapiens, 72 hour incubation
Outline: as §1

COR-L105 = assay: OncoPanel cytotoxicity assay; format: cell-based; details: Homo sapiens, 72 hour incubation
Outline: as §1

OE19 = assay: OncoPanel cytotoxicity assay; format: cell-based; details: Homo sapiens, 72 hour incubation
Outline: as §1

OE21 = assay: OncoPanel cytotoxicity assay; format: cell-based; details: Homo sapiens, 72 hour incubation
Outline: as §1

DMS273 = assay: OncoPanel cytotoxicity assay; format: cell-based; details: Homo sapiens, DMS-273, 72 hour incubation
Outline: as §1

COR-L23 = assay: OncoPanel cytotoxicity assay; format: cell-based; details: Homo sapiens, 72 hour incubation
Outline: as §1

NCI-H69 = assay: OncoPanel cytotoxicity assay; format: cell-based; details: Homo sapiens, 72 hour incubation
Outline: as §1

OE33 = assay: OncoPanel cytotoxicity assay; format: cell-based; details: Homo sapiens, 72 hour incubation
Outline: as §1

[2] = share of the cell lines of the panel

Compound: CC[C@@H]1CNC2(CC2)CN1C(=O)[C@@H]1C[C@@H](F)CN1C(=O)C1=C(C(C)C)N2C(=N[C@@](C)(c3ccc(Cl)nc3)[C@H]2c2ccc(Cl)c(F)c2)S1 [Compound A, [(5R,6S)-5-(4-Chloro-3-fluorophenyl)-6-(6-chloropyridin-3-yl)-6-methyl-3-(propan-2-yl)-5,6-dihydroimidazo[2,1-b][1,3]thiazol-2-yl][(2S,4R)-2-{[(6R)-6-ethyl-4,7-diazaspiro[2.5]oct-7-yl]carbonyl}-4-fluoropyrrolidin-1-yl]methanone]
- IC50 ([1]; Homo sapiens, range over all cell lines of the panel, read-out: Cell line IC50 values ranged): ≥ 0.12 µM
- cell lines with IC50 values of <1 μM [1, 2]: Approximately 25%
- cell lines with IC50 values of >10 μM [1, 2]: approximately 70%
- IC50 (CAL-54): 0.602 µM
- IC50 (WM-115): 0.564 µM
- IC50 (IMR-32): 0.828 µM
- IC50 (ZR-75-1): 1.5 µM
- IC50 (CRO-AP5): 0.22 µM
- IC50 (T84): > 40 µM
- IC50 (VCaP): > 40 µM
- IC50 (BT-483): 13.2 µM
- IC50 (MDA-MB-175-VII): > 40 µM

Compound: CC1(C)CCC2(CC1)N[C@@H](C(=O)N[C@@H]1CC[C@@H](C(N)=O)OC1)[C@H](c1ccnc(Cl)c1F)[C@]21C(=O)Nc2cc(Cl)ccc21 [Compound B, (3′R,4′S,5′R)—N-[(3R,6S)-6-carbamoyltetrahydro-2H-pyran-3-yl]-6″-chloro-4′-(2-chloro-3-fluoropyridin-4-yl)-4,4-dimethyl-2″-oxo-1″,2″-dihydrodispiro[cyclohexane-1,2′-pyrrolidine-3′,3″-indole]-5′-carboxamide]
- IC50 (COR-L105): 0.168 µM
- IC50 (OE19): > 10 µM
- IC50 (OE21): 9.81 µM
- IC50 (DMS273): 9.08 µM
- IC50 (COR-L23): 8.98 µM
- IC50 (NCI-H69): > 10 µM
- IC50 (OE33): 7.58 µM
